Legend:
[1] = Phase 1 open-label study of the impact of fluvoxamine on the pharmacokinetics of pirfenidone in healthy subjects; conditions: for Ratio of Day 11 AUC0-∞ to Day 1 AUC0-∞, Mean (SD) / Ratio of Day 11 AUC0-∞ to Day 1 AUC0-∞, Median (25th-75th): Day 11 with fluvoxamine vs Day 1 without; for AUC0-∞, Mean (SD) / AUC0-∞, Median (25th-75th): single 801-mg dose of pirfenidone, healthy subjects, n = 51, plasma
From the text: Study Design. The study was a Phase 1, open-label, parallel-group study in healthy subjects. Fifty-four subjects were to be enrolled in two groups, consisting of 27 subjects who were smokers (Group 1) and 27 subjects who were nonsmokers (Group 2). […] Each group (smokers and nonsmokers) was to include a minimum of nine females and nine males, and attempts were to be made to enroll equal numbers of each sex in each group.

[2] = system: multiple other CYPs (1A1, 2A6, 2B6, 2C8, 2C9, 2C18, 2C19, 2D6, 2E1, 2J2, 3A4, 3A5, 4A11, and 4F2); test: In vitro metabolism of pirfenidone by CYP isoforms; assay type: in vitro ADME; conditions: each isoform
From the text: There are no unique human metabolites.

CYP1A2 = target: T1, CYP1A2 (Homo sapiens, UniProt P05177); test: In vitro metabolism of pirfenidone by CYP isoforms; assay type: in vitro ADME
T1 sequence (P05177 1-516): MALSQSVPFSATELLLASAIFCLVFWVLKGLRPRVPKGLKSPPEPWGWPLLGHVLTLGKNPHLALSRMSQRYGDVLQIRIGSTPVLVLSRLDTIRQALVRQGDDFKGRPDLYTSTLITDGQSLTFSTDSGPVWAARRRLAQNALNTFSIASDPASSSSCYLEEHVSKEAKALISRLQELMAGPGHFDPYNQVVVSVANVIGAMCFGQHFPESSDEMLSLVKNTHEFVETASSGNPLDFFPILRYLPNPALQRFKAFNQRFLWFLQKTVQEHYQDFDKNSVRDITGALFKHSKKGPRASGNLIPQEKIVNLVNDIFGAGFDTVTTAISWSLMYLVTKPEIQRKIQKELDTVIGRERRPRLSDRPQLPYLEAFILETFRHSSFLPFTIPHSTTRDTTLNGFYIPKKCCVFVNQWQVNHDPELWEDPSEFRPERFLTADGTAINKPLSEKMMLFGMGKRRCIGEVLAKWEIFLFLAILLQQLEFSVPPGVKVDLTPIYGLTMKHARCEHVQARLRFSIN

[3] = Study Day 11: Post-Fluvoxamine (fluvoxamine Days 2-11)

In the case of `O=C(O)c1ccc(=O)n(-c2ccccc2)c1` [5-Carboxy-Pirfenidone, 5 carboxy-pirfenidone], the “Ratio of Cmax on Day 11 to the Cmax on Day 1, mean (95% CI)” value ([1]; Day 11 post-fluvoxamine vs Day 1 pre-fluvoxamine, all subjects) is reported as 0.369 (0.349-0.390), the “Effect of fluvoxamine co-administration on AUC0-∞ (significance, paired t-test)” value ([1]; Day 11 vs Day 1) is reported as “not a statistically significant effect” and the “Ratio of Day 11 AUC0-∞ to Day 1 AUC0-∞, Mean (SD)” value ([1]; Nonsmokers, N 25) is reported as 1.05 (0.114). For the same molecule, the “Ratio of Day 11 AUC0-∞ to Day 1 AUC0-∞, Median (25th-75th)” value ([1]; Nonsmokers, N 25) was 1.03 (0.978-1.11), the “Ratio of Day 11 AUC0-∞ to Day 1 AUC0-∞, Mean (SD)” value ([1]; Smokers, N 26) was 1.12 (0.0951) and the “Ratio of Day 11 AUC0-∞ to Day 1 AUC0-∞, Median (25th-75th)” value ([1]; Smokers, N 26) was 1.13 (1.04-1.19). The “AUC0-∞, Mean (SD)” value ([1]; Study Day 1: Pre-Fluvoxamine) was 29.3 (8.22) mg · hr/L, the “AUC0-∞, Median (25th-75th)” value ([1]; Study Day 1: Pre-Fluvoxamine) was 26.9 (22.0-33.7) mg · hr/L and the “AUC0-∞, Mean (SD)” value [1, 3] was 31.7 (8.96) mg · hr/L. For the same molecule, the “AUC0-∞, Median (25th-75th)” value [1, 3] was 29.4 (25.4-36.5) mg · hr/L.

With `Cc1ccc(=O)n(-c2ccccc2)c1` [Pirfenidone, 5-methyl-1-phenyl-2-(1H)-pyridone] the “Share of pirfenidone metabolism by each other CYP” value [2] was < 13% and the “Share of pirfenidone metabolism by CYP1A2” value (CYP1A2) was “approx 48%”.
